The text below walks through data of PMC11350846, “Synthesis of Second-Generation Analogs of Temporin-SHa Peptide Having Broad-Spectrum Antibacterial and Anticancer Effects” (Antibiotics, 2024).

Where a SMILES comes first, the peptide text is derived from it. [ ]: non-standard residue; d: D form. d2Nal = N[C@H](Cc1ccc2ccccc2c1)C(=O)O

Data set [1] relates to Gram-negative and Gram-positive bacterial strains. As to the method: The peptides were assessed for their antibacterial activity by determining the minimum inhibitory concentration (MIC) using the two-fold serial dilution method following the National Committee of Clinical Laboratory Standards, as previously described. Gram-negative (Acinetobacter baumannii (DSM 30007), Escherichia coli (ATCC 8739), Enterobacter cloacae (DSM 30054), Helicobacter pylori (ATCC 43504), Klebsiella pneumoniae (DSM 26371), Pseudomonas aeruginosa (ATCC 9027)) and Gram-positive bacteria (Bacillus subtilis (ATCC 6633), Enterococcus faecalis (DSM 2570), Enterococcus faecium (DSM 20477), Staphylococcus aureus (ATCC 6538)) were used for the antibacterial activity assays. In brief, 3 mL of Mueller–Hinton (MH) broth was inoculated with single clusters of the various bacterial strains and incubated overnight at 37 °C with agitation at 200 rpm. The next day, the bacterial solution was diluted with sterile MH by 1/100 and further incubated at 37 °C and 200 rpm until the bacteria reached the log phase growth (OD600nm around 0.6). The bacterial suspension was then adjusted to a density of approximately 10^5 bacteria/mL, and 100 μL was added per well of 96-well microplates (Greiner BioOne, Les Ulis, France), followed by exposure to increasing concentrations of peptides (from 0 to 100 µM, 1:2 dilution). Plates were then incubated at 37 °C for 18-24 h under either aerobic (for A. baumannii, E. cloacae, E. coli, P. aeruginosa, B. subtilis, and S. aureus) or micro-aerobic conditions generated using GasPak units (for E. faecalis, E. faecium and, H. pylori). […] The optical density (OD) at 600nm was measured using a microplate reader (Biotek, Synergy Mx, Les Ulis, France) after the final incubation. All experiments were performed in triplicate (n = 3).

Data set [2] has as its system human cancer and normal/non-cancerous cells. Type of data set: cell-based. As to conditions: tested human cells, up to 100 µM. As to the method:
(§1) The antiproliferative activity of the peptides was evaluated, as previously described using human cancer cell lines (A549 (lung), A2780 (ovary), HepG-2 (liver), MCF-7 (breast), MiaPaCa-2 (pancreas), MNT-1 (skin), and PC-3 (prostate)) and normal human lung fibroblasts (IMR-90) or epithelial cells (BEAS-2B). The cells were cultured in DMEM supplemented with 10% FBS, 1% L-glutamine, and 1% antibiotics at 37 °C in a 5% CO2 incubator. For the antiproliferative assay, cells were seeded in 96-well plates at approximately 3000 cells/well. Twenty-four hours later, cells were treated with increasing concentrations of peptides (1:2 serial dilution from 100 µM to 0 µM) for 48 h. After treatment, the number of viable cells was determined using a resazurin-based assay, and the fluorescence intensity was measured with a microplate reader (Ex 530 nm/Em 590 nm). The IC50 values of the peptides (i.e., the concentrations causing 50% inhibition of cell proliferation) were determined using GraphPad® Prism 7 software. The experiments were performed in triplicate (n = 3). The cytotoxicity of the peptides was also evaluated using confluent/no-dividing cells, as previously described. Briefly, human cells were seeded onto 96-well plates at 20,000 cells/well. When they reached 80–90% confluence (after 24–48 h), cells were treated with escalating concentrations of peptides. After 48h incubation, cell viability was measured using a resazurin assay and CC50 (i.e., the concentrations causing 50% inhibition of cell viability) and determined using GraphPad® Prism 7 software. The experiments were performed in triplicate (n = 3).

Data set [3] is described as follows: Circular dichroism, secondary structure (Bestsel). As to conditions: CD in 20 mM SDS. Format: physicochemical. The method, then: Circular dichroism of temporin SHa, [G10a]-SHa and newly synthesised second-generation analogs of [G10a]-SHa in 20 mM SDS are shown in Figure 2. In lipidic environments mimicked by SDS, peptides adopt an alpha helical structure due to their amphipathic nature. This structural feature is important for their antimicrobial activity, allowing for their insertion into bacterial membranes. The hydrophobic region of the peptide interacts with the hydrophobic portion of the lipid while the hydrophilic region remains exposed to the aqueous environment. The percentage of alpha helix, as well as the percentage of other secondary structures, was determined from CD data using Bestsel software (https://bestsel.elte.hu/index.php, (accessed on 22 June 2024)) (Table 3). Temporin-SHa (1) adopted a 49.5% α-helical structure, while its first-generation analog [G10a]-SHa (2) acquired a 82.4% alpha helical structure. The 84.6%, 88.7%, 4.7%, and 53.8% alpha helical structures were acquired for second-generation analogs 3, 4, 5, and 6, respectively.
The far-ultraviolet CD spectra were obtained using a JASCO J-810 spectropolarimeter (Jasco, Tokyo, Japan). In addition to this, the quartz cuvette of 10 mm path length was used. The temperature was maintained at 22 °C, and the output of the instrument was calibrated using D-(+)-10-camphorsulfonic acid. The peptides, which were present at a concentration of 1.0 mg/mL, were dissolved completely in 20 mM SDS at a concentration of 15 µM [21]. The instrument was set to record wavelengths ranging from 190 to 260 nm with a bandwidth of 2 nm. Ten consecutive scans (accumulations) were recorded for each spectrum at a rate of 50 nm/min, and the baseline was acquired under the same conditions.

The test system of data set [4] is Lung Cancer (A549). Type of data set: cell-based, human. The following applies: 48 h. The method, then: as §1
Data set [5] relates to Normal Lung Fibroblast (IMR-90). Format: cell-based, human. The following applies: 48 h. The method, then: as §1
The test system of data set [6] is Prostate Cancer (PC-3). Type of data set: cell-based, human. As to conditions: 48 h. The method, then:
as §1

Data set [7] concerns Breast Cancer (MCF-7). Type of data set: cell-based, human. As to conditions: 48 h. The method, then: as §1
The subject of data set [8] is Skin Cancer (MNT-1). Type of data set: cell-based, human. The following applies: 48 h. The method, then: as §1
In data set [9] the test system is Liver Cancer (HepG-2). Type of data set: cell-based, human. The following applies: 48 h. As to the method:
as §1

For data set [10], the system named is Normal Lung Epithelium (BEAS-2B). Type of data set: cell-based, human. The following applies: 48 h. As to the method: as §1
The test system of data set [11] is Ovarian Cancer (A2780). Format: cell-based, human. The following applies: 48 h. As to the method: as §1
Data set [12] deals with Pancreatic Cancer (MiaPaCa-2). Format: cell-based, human. As to conditions: 48 h. As to the method: as §1

As for `CC[C@H](C)[C@H](NC(=O)CNC(=O)[C@H](CO)NC(=O)[C@H](CC(C)C)NC(=O)[C@@H](N)Cc1ccccc1)C(=O)N[C@H](C(=O)NCC(=O)N[C@@H](CCSC)C(=O)N[C@@H](CC(C)C)C(=O)N[C@H](Cc1ccc2ccccc2c1)C(=O)N[C@@H](CCCCN)C(=O)N[C@@H](CC(C)C)C(=O)N[C@@H](Cc1ccccc1)C(N)=O)C(C)C` [[G10n]-SHa (5), H-Phe^1-Leu^2-Ser^3-Gly^4-IIe^5-Val^6-Gly^7-Met^8-Leu^9-D-NAL^10-Lys^11-Leu^12-Phe^13-NH2] (H-FLSGIVGML[d2Nal]KLF-NH2), in data set [1], the “MIC values, range over strains” value fell in the range of 50 to 100 µM. The “activity against the tested human cells” value in [2] was “inactive”. In [3], this compound came in with an Antiparallel of 34.10%. In addition, the figures for the “Helix (alpha helical structure)” value in data set [3] and in [3] (listed as 5) were 4.70% and 4.7%, respectively. The Others in data set [3] was found to be 47.20%. The Parallel in [3] is reported as 1.10%. Moreover, the Turn in data set [3] came to 12.90%. Besides, the IC50 in data set [4], in data set [5], in data set [6], in data set [7], in [8] and in [9] was > 100 µM each time. Further, the IC50 in data set [10], in data set [11] and in [12] was > 100 µM each time.

The term IC50 denotes the concentration that gives 50% inhibition. Read a high IC50 as weaker potency.
